Results taken from patent US9765037B2, “Compositions and methods for treating toxoplasmosis, cryptosporidiosis, and other apicomplexan protozoan related diseases” (University of Washington Through its Center for …, priority 2010, dated 2017).
Like-named read-outs stand apart in the source and are kept apart here.

Experiments:
CpCDPK1 = CpCDPK1 (Cryptosporidium parvum (strain Iowa II), UniProt A3FQ16); assay: biochemical; format: biochemical
PfCDPK4 = PfCDPK4 (Plasmodium falciparum (isolate 3D7), UniProt Q8IBS5); assay: biochemical
PfCDPK1 = PfCDPK1 (Plasmodium falciparum (isolate 3D7), UniProt P62344); assay: biochemical
TgCDPK1 = TgCDPK1 (Toxoplasma gondii, UniProt Q9BJF5); format: biochemical
Sequence of TgCDPK1 (Q9BJF5 1-507): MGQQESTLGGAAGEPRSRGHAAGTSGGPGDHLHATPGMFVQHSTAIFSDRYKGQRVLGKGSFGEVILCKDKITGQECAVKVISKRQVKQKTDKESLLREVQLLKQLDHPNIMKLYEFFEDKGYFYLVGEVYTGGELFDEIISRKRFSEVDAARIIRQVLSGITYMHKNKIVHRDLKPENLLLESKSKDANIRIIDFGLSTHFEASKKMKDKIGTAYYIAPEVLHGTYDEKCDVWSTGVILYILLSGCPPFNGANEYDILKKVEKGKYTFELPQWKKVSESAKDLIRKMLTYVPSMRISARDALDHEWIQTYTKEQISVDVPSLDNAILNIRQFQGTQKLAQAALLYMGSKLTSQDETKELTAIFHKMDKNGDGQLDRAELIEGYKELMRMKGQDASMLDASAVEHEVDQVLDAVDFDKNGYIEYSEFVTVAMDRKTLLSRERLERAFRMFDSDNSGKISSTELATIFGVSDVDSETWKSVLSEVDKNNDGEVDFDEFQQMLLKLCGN

[1] = Table 8, read-out: IC50 (μM) CpCDPK1

Sequence of CpCDPK1 (A3FQ16 1-538): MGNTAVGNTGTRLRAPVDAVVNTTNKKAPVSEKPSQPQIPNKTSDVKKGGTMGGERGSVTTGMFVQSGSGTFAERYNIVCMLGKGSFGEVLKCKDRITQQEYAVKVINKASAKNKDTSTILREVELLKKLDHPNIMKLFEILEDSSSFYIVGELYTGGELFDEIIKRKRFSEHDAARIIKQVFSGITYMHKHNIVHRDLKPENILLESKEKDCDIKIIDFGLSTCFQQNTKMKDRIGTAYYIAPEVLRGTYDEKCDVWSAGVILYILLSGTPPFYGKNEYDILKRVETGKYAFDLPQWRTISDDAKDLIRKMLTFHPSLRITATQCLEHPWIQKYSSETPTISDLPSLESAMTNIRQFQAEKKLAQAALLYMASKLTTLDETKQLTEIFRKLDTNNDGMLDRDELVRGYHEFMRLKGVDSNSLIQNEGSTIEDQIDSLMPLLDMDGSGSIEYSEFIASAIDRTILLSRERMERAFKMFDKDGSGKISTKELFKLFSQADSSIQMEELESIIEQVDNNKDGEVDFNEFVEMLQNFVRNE

Compound	selectivity TgCDPK1 versus CpCDPK1 (in words) (CpCDPK1)	IC50 (CpCDPK1; read-out: CpCDPK1 IC50)	inhibition at 3 µM (PfCDPK4; read-out: PfCDPK4 (% inhibition @ 3 uM))	inhibition at 3 µM (PfCDPK1; read-out: PfCDPK1 (% inhibition @ 3 uM))	IC50 (TgCDPK1; read-out: TgCDPK1 IC50)	IC50 (CpCDPK1; read-out: IC50 (μM) CpCDPK1)	EC50 (PfCDPK4)	EC50 (PfCDPK1)	IC50 (TgCDPK1; read-out: IC50 (μM) TgCDPK1)	IC50 (CpCDPK1; [1])
COc1cc(-c2nn(C(C)C)c3ncnc(N)c23)cc(OC)c1OC [Compound 7l, 1-isopropyl-3-(3,4,5-trimethoxyphenyl)-1H-pyrazolo[3,4-d]pyrimidin-4-amine]	equipotent or slightly selective for CpCDPK1	0.093 µM	31%	85%	0.42 µM	–	–	–	–	–
CC(C)n1nc(-c2ccc3c(c2)OCO3)c2c(N)ncnc21 [Compound 7u, 3-(benzo[d][1,3]dioxol-5-yl)-1-isopropyl-1H-pyrazolo[3,4-d]pyrimidin-4-amine]	–	–	–	–	–	0.312 µM	1100 nM	422 nM	0.045 µM	–
CC(C)c1nc(-c2ccc3ccccc3c2)c2c(N)nccn12 [Compound 8, 3-isopropyl-1-(naphthalen-2-yl)imidazo[1,5-a]pyrazin-8-amine]	–	–	–	–	–	–	91 nM	156 nM	0.0048 µM	0.0078 µM
COc1ccc2[nH]c(-c3nn(C(C)C)c4ncnc(N)c34)cc2c1 [Compound 27, 1-isopropyl-3-(5-methoxy-1H-indol-2-yl)-1H-pyrazolo[3,4-d]pyrimidin-4-amine]	–	–	–	–	–	–	> 3000 nM	879 nM	0.0569 µM	0.623 µM
CC(C)(C)n1nc(-c2ccc(NC(=O)CCl)cc2)c2c(N)ncnc21 [Compound 58, N-(4-(4-amino-1-tert-butyl-1H-pyrazolo[3,4-d]pyrimidin-3-yl)phenyl)-2-chloroacetamide]	–	–	–	–	–	–	2430 nM	214 nM	0.136 µM	0.588 µM
CC(C)C(=O)Nc1ccc(-c2nn(C(C)(C)C)c3ncnc(N)c23)cc1 [Compound 59, N-(4-(4-amino-1-tert-butyl-1H-pyrazolo[3,4-d]pyrimidin-3-yl)phenyl)isobutyramide]	–	–	–	–	–	–	459 nM	111 nM	0.0997 µM	0.832 µM
CC(C)(C)C(=O)Nc1ccc(-c2nn(C(C)(C)C)c3ncnc(N)c23)cc1 [Compound 60, N-(4-(4-amino-1-tert-butyl-1H-pyrazolo[3,4-d]pyrimidin-3-yl)phenyl)pivalamide]	–	–	–	–	–	–	326 nM	66.4 nM	0.0666 µM	0.929 µM
CCCC(=O)Nc1ccc(-c2nn(C(C)(C)C)c3ncnc(N)c23)cc1 [Compound 61, N-(4-(4-amino-1-tert-butyl-1H-pyrazolo[3,4-d]pyrimidin-3-yl)phenyl)butyramide]	–	–	–	–	–	–	515 nM	71.4 nM	0.0684 µM	0.927 µM
CC(C)CC(=O)Nc1ccc(-c2nn(C(C)(C)C)c3ncnc(N)c23)cc1 [Compound 62, N-(4-(4-amino-1-tert-butyl-1H-pyrazol[3,4-d]pyrimidin-3-yl)phenyl)-3-methylbutanamide]	–	–	–	–	–	–	140 nM	37.7 nM	0.0409 µM	0.692 µM
CC(C)(C)n1nc(-c2ccc(NC(=O)C3CCCC3)cc2)c2c(N)ncnc21 [Compound 63, N-(4-(4-amino-1-tert-butyl-1H-pyrazolo[3,4-d]pyrimidin-3-yl)phenyl)cyclopentanecarboxamide]	–	–	–	–	–	–	136 nM	11.8 nM	0.0462 µM	0.417 µM
CC(C)(C)n1nc(-c2ccc(NC(=O)C3CCCCC3)cc2)c2c(N)ncnc21 [Compound 64, N-(4-(4-amino-1-tert-butyl-1H-pyrazolo[3,4-d]pyrimidin-3-yl)phenyl)cyclohexanecarboxamide]	–	–	–	–	–	–	1080 nM	128 nM	0.143 µM	0.928 µM
CC(C)(C)n1nc(-c2ccc(NC(=O)c3ccccc3)cc2)c2c(N)ncnc21 [Compound 65, N-(4-(4-amino-1-tert-butyl-1H-pyrazolo[3,4-d]pyrimidin-3-yl)phenyl)benzamide]	–	–	–	–	–	–	2850 nM	101 nM	0.171 µM	1.16 µM
